The test system of experiment [1] is surface alveoli of the isolated adult rat lung. Kind of experiment: Surface tension determination in alveoli of the isolated adult rat lung (Method 1). The method, then: Method 1. Surface tension determination in the adult rat lung. […] In flooded alveoli, the air-liquid interface forms a meniscus, at which surface tension is determined as follows. Alveolar air pressure is determined with a transducer at the trachea of the constantly-inflated lung. Alveolar liquid phase pressure is determined by servo-nulling pressure measurement. Meniscus radius of curvature is determined by confocal microscopy. Surface tension is calculated according to the Lapalce relation.
1. direct surface tension determination in surface alveoli of the isolated adult rat lung, which contains native lung surfactant, following alveolar instillation of a test solution;

Experiment [2] deals with heterogeneously flooded region of the isolated, perfused adult rat lung. Description: Ventilation injury score in the isolated, perfused adult rat lung (Method 2). Conditions: for Injury score: flooding solution normal saline with 5% albumin, solutes at about the concentrations present in 1% SURVANTA solution, n=1 or 2/group (FIG. 2A). From the text: Method 2. Ventilation ‘injury score’ in the adult rat lung. In the isolated, perfused adult rat lung, a surface alveolus is micropunctured and a non-fluorescent test solution is instilled. In experimental regions, a sufficiently large volume of liquid is instilled to generate a pattern of heterogeneous alveolar flooding; in control regions, a sufficiently small volume of liquid is instilled that the liquid spontaneously clears from the region, leaving behind a micropunctured-but-aerated region. Fluorescent dye, at a low concentration verified not to alter surface tension, is included in the perfusate. The region is imaged by confocal microscopy over a five minute baseline period at a constant transpulmonary pressure of 5 cm H2O. Five ventilation cycles are supplied to the lung, at 0.33 Hz with a positive end-expiratory pressure of 15 cm H2O and a tidal volume of 6 ml/kg body weight. The lung is then returned to a constant transpulmonary pressure of 5 cm H2O and imaged for 10 additional minutes. Alveolar liquid fluorescence at all time points is normalized by capillary fluorescence.
At baseline, alveolar liquid fluorescence (in flooded alveoli of experimental regions or in the liquid lining layer of control, aerated regions) is low and constant in all regions. Following ventilation, alveolar liquid fluorescence remains unchanged in aerated regions but continually increases with time in heterogeneously flooded regions. […] The increase above baseline in normalized alveolar liquid fluorescence at the last time point of the experiment is used as an injury score. The injury score, which indicates the rate of increase of normalized fluorescence following ventilation, correlates with surface tension of the test solution.
2. degree of ventilation induced injury in a region of the isolated, perfused adult rat lung in which surface alveoli have been flooded, in a heterogeneous fashion, with a test solution;

[3] abbreviates: 10 μM NaOH alone, without dextran, in the absence or presence of SURVANTA

Where no end group is shown, it is not given here. The star is where a group is joined. Biotin = O=C1N[C@H]2[C@H](CS[C@H]2CCCCC(=O)*)N1

Regarding fibrinogen, in experiment [1] (5 w/v % solute, adult rat lung, dextran negative charge imparted by 10 μM NaOH (FIGS. 1A and B)), the “Facilitation of the surface activity of 1 vol % SURVANTA” value is recorded as “facilitate”.
Regarding “sSP-Css-ion lock-B: a variant of sSP-Css-ion lock with a biotinylated N-terminal (Biotin-GIPSSPVHLKRLLIVVVVVELIVKVIVGALLMGL)”, the Injury score entry in experiment [2] is reported as “lower injury score”.
Take `CCCCCCCCCCCCCCCC(=O)OC[C@H](COP(=O)([O-])OCC[N+](C)(C)C)OC(=O)CCCCCCCCCCCCCCC` [DPPC, dipalmitoylphosphatidylcholine, reference compound]: in experiment [2], the Injury score entry is “Only SP-C and sSP-C lower injury score”.
For the molecule `[Na+].[OH-]` [NaOH], the “Effect on surface tension” value in experiment [1] (setting [3]) was “no effect”. Also, the “Effect on lung injury” value in experiment [2] (setting [3]) is on record as “no effect”.

B1: SP-B: surfactant protein B isolated from pulmonary alveolar proteinosis patients (protein, UniProt P07988 201-279, looked up)
Pulmonary …: FPIPLPYCWLCRALIKRIQAMIPKGALAVAVAQVCRVVPLVAGGICQCLAERYSVILLDTLLGRMLPQLVCRLVLRCSM
modifications: Pulmonary surfactant-associated protein B
notes: surfactant protein B isolated from pulmonary alveolar proteinosis patients
Take B1: the Injury score entry in experiment [2] is “Only SP-C and sSP-C lower injury score”.

The record behind these values is patent US10391151B2, “Dilute surfactant or isolated surfactant protein solution for the reduction of surface tension in the lung” (The Trustees of the Stevens Institute of Technology, priority 2015, dated 2019).
